biological target: HPK1 (Homo sapiens (Human), UniProt Q92918); assay: HPK1 biochemical enzyme assay (microfluidic mobility shift assay); settings: 1.5 nM HPK1, ATP 1 mM final, 30 min preincubation, 60 min at RT, Caliper EZ Reader; read-out: HPK1 1000UMATP caliper IC50
Summary of the method: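 Mobility shift readout of HPK1 activity after a 60 min RT reaction with 1 mM ATP, 1 μM substrate and 5 mM MgCl2. Enzyme/substrate mix was first exposed to compounds for 30 min, using ten-point curves topping at 3 μM final.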

Sequence of HPK1 (Q92918 whole entry): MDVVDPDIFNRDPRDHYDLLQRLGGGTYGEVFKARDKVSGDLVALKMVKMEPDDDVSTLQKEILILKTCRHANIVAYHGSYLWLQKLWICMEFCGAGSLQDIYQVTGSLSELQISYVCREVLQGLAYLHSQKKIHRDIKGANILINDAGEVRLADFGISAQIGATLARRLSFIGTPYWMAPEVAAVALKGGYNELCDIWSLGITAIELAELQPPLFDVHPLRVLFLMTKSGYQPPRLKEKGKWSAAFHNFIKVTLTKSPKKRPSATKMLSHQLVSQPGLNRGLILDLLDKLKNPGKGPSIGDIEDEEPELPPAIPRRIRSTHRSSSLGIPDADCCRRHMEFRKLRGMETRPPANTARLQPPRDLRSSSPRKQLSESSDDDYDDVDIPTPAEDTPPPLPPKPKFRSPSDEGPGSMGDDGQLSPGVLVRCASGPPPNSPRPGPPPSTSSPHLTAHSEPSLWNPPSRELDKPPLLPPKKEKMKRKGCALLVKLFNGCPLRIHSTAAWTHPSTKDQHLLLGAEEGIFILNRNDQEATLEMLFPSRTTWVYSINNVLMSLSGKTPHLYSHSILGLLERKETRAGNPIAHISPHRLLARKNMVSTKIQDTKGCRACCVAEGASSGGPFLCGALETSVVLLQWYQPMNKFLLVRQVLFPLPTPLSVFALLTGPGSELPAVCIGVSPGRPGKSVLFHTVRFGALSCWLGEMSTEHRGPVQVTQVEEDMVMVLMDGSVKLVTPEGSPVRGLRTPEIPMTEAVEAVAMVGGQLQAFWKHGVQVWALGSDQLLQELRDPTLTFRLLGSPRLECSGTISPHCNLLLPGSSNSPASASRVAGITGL

| IC50 | Compound |
| --- | --- |
| < 100 nM | CN(C)Cc1nc(Nc2cnc(-c3ccnc4c3ccn4C)c3c2C(=O)NC3)ccc1[C@H]1CCOC1 [I-708, (R)-7-((6-((dimethylamino)methyl)-5-(tetrahydrofuran-3-yl)pyridin-2-yl)amino)-4-(1-methyl-1H-pyrrolo[2,3-b]pyridin-4-yl)-2,3-dihydro-1H-pyrrolo[3,4-c]pyridin-1-one] |
| < 100 nM | Cc1cccc2c(-c3ccc(Nc4ccc([C@@H]5CCOC5)c(CN(C)C)n4)c4c3CNC4=O)cnn12 [I-709, (S)-7-((6-((dimethylamino)-methyl)-5-(tetrahydrofuran-3-yl)pyridin-2-yl)amino)-4-(7-methylpyrazolo[1,5-a]pyridin-3-yl)isoindolin-1-one] |
| < 100 nM | CN(C)Cc1nc(Nc2ccc(-c3cnc4cnccn34)c3c2C(=O)NC3)ccc1[C@H]1CCOC1 [I-713, (R)-7-((6-((dimethylamino)-methyl)-5-(tetrahydrofuran-3-yl)pyridin-2-yl)amino)-4-(imidazo[1,2-a]pyrazin-3-yl)isoindolin-1-one] |
| < 100 nM | CN(C)Cc1nc(Nc2ccc(-c3cnc4cnccn34)c3c2C(=O)NC3)ccc1[C@@H]1CCOC1 [I-714, (S)-7-((6-((dimethylamino)-methyl)-5-(tetrahydrofuran-3-yl)pyridin-2-yl)amino)-4-(imidazo[1,2-a]pyrazin-3-yl)isoindolin-1-one] |
| < 100 nM | CN(C)C(C)(C)[C@]1(O)CCCN(c2ccc(Nc3ccc(-c4cnc5cc(F)ccn45)c4c3C(=O)NC4)nc2)C1 [I-715, (S)-7-((5-(3-(2-(dimethylami-no)propan-2-yl)-3-hydroxy-piperidin-1-yl)pyridin-2-yl)amino)-4-(7-fluoroimidazo [1,2-a]pyridin-3-yl)isoindolin-1-one] |
| < 100 nM | CN(C)C(C)(C)[C@@]1(O)CCCN(c2ccc(Nc3ccc(-c4cnc5cc(F)ccn45)c4c3C(=O)NC4)nc2)C1 [I-716, (R)-7-((5-(3-(2-(dimethylainino)propan-2-yl)-3-hydroxy-piperidin-1-yl)pyridin-2-yl)amino)-4-(7-fluoroimidazo [1,2-a]pyridin-3-yl)isoindolin-1-one] |
| < 100 nM | O=C1NCc2c(-c3cnc4cc(F)ccn34)ccc(Nc3ccc([C@H]4CCOC4)c(CN4CCC(F)(F)C4)n3)c21 [I-717, (R)-7-((6-((3,3-difluoropyrro-lidin-1-yl)methyl)-5-(tetrahydrofuran-3-yl)pyridin-2-yl)amino)-4-(7-fluoroimidazo [1,2-a]pyridin-3-yl)isoindolin-1-one] |
| < 100 nM | O=C1NCc2c(-c3cnc4cc(F)ccn34)ccc(Nc3ccc([C@@H]4CCOC4)c(CN4CCC(F)(F)C4)n3)c21 [I-718, (S)-7-((6-((3,3-difluoropyrro-lidin-1-yl)methyl)-5-(tetrahydrofuran-3-yl)pyridin-2-yl)amino)-4-(7-fluoroimidazo [1,2-a]pyridin-3-yl)isoindolin-1-one] |
| < 100 nM | CN(C)Cc1nc(Nc2ccc(-c3cnc4cc(F)ccn34)c3c2C(=O)NC3)ccc1C1(O)CCOCC1 [I-719, 7-((6-((dimethylamino)-methyl)-5-(4-hydroxytetra-hydro-2H-pyran-4-yl)pyridin-2-yl)amino)-4-(7-fluoroimidazo [1,2-a]pyridin-3-yl)isoindolin-1-one] |
| 100 to 1000 nM | Cn1ccc2c(-c3ncc(Nc4cccc(N5C[C@H](N6CCC6)CC5=O)n4)c4c3CNC4=O)ccnc21 [I-724, (R)-7-((6-(4-(azetidin-1-yl)-2-oxopyrrolidin-1-yl)pyridin-2-yl)amino)-4-(1-methyl-1H-pyrrolo[2,3-b]pyridin-4-yl)-2,3-dihydro-1H-pyrrolo[3,4-c]pyridin-1-one] |
| < 100 nM | Cn1ccc2c(-c3ncc(Nc4cccc(N5C[C@@H](N6CCC6)CC5=O)n4)c4c3CNC4=O)ccnc21 [I-725, (S)-7-((6-(4-(azetidin-1-yl)-2-oxopyrrolidin-1-yl)pyridin-2-yl)amino)-4-(1-methyl-1H-pyrrolo[2,3-b]pyridin-4-yl)-2,3-dihydro-1H-pyrrolo[3,4-c]pyridin-1-one] |
| < 100 nM | CN(Cc1nc(Nc2ccc(-c3cnc4cc(F)ccn34)c3c2C(=O)NC3)ccc1[C@H]1CCOC1)C1CC1 [I-737] |
| < 100 nM | CN(Cc1nc(Nc2ccc(-c3cnc4cc(F)ccn34)c3c2C(=O)NC3)ccc1[C@@H]1CCOC1)C1CC1 [I-738] |
| < 100 nM | CN(Cc1nc(Nc2ccc(-c3cnc4cc(F)ccn34)c3c2C(=O)NC3)ccc1[C@H]1CCOC1)C1COC1 [I-743, (R)-4-(7-fluoroimidazo [1,2-a]pyridin-3-yl)-7-((6-((methyl(oxe-tan-3-yl)amino)meth-yl)-5-(tetrahydrofuran-3-yl)pyridin-2-yl)amino)isoin-dolin-1-one] |
| < 100 nM | CN(Cc1nc(Nc2ccc(-c3cnc4cc(F)ccn34)c3c2C(=O)NC3)ccc1[C@@H]1CCOC1)C1COC1 [I-744, (S)-4-(7-fluoroimidazo [1,2-a]pyridin-3-yl)-7-((6-((methyl(oxe-tan-3-yl)amino)meth-yl)-5-(tetrahydrofuran-3-yl)pyridin-2-yl)amino)isoin-dolin-1-one] |
| < 100 nM | CN(C)Cc1nc(Nc2ccc(-c3cnc4cc(F)ccn34)c3c2C(=O)NC3)ccc1N1CCC[C@@H](C(C)(C)O)C1 [I-745, (R)-7-((6-((dimethylamino)-methyl)-5-(3-(2-hydroxypropan-2-yl)piperidin-1-yl)pyridin-2-yl)amino)-4-(7-fluoroimidazo [1,2-a]pyridin-3-yl)isoindolin-1-one] |
| < 100 nM | CN(C)Cc1nc(Nc2ccc(-c3cnc4cc(F)ccn34)c3c2C(=O)NC3)ccc1N1CCC[C@H](C(C)(C)O)C1 [I-746, (S)-7-((6-((dimethylamino)-methyl)-5-(3-(2-hydroxypropan-2-yl)piperidin-1-yl)pyridin-2-yl)amino)-4-(7-fluoroimidazo [1,2-a]pyridin-3-yl)isoindolin-1-one] |
| < 100 nM | CC(C)(c1ccc(Nc2ccc(-c3cnc4cc(F)ccn34)c3c2C(=O)NC3)nc1)N1CCOCC1 [I-747, 4-(7-fluoroimidazo [1,2-a]pyridin-3-yl)-7-((5-(2-morpholino-propan-2-yl)pyridin-2-yl)amino)isoin-dolin-1-one] |
| < 100 nM | O=C1NCc2c(-c3cnc4cc(F)ccn34)ccc(Nc3ccc([C@H]4CCOC4)c(CNCC(F)(F)F)n3)c21 [I-750, (R)-4-(7-fluoroimidazo [1,2-a]pyridin-3-yl)-7-((5-(tetrahydrofuran-3-yl)-6-(((2,2,2-trifluoroethyl)amino)methyl)pyridin-2-yl)amino)isoin-dolin-1-one] |
| < 100 nM | O=C1NCc2c(-c3cnc4cc(F)ccn34)ccc(Nc3ccc([C@@H]4CCOC4)c(CNCC(F)(F)F)n3)c21 [I-751, (S)-4-(7-fluoroimidazo [1,2-a]pyridin-3-yl)-7-((5-(tetrahydrofuran-3-yl)-6-(((2,2,2-trifluoroethyl)amino)methyl)pyridin-2-yl)amino)isoin-dolin-1-one] |
| < 100 nM | O=C1NCc2c(-c3cnc4cc(F)ccn34)ccc(Nc3ccc([C@H]4CCOC4)c(CN4CCC4)n3)c21 [I-755, (R)-7-((6-(azetidin-1-ylmethyl)-5-(tetrahydrofuran-3-yl)pyridin-2-yl)amino)-4-(7-fluoroimidazo [1,2-a]pyridin-3-yl)isoindolin-1-one] |
